What all share (type): biochemical
In experiment [1] the target is T1, full-length human PHD2 (Homo sapiens, UniProt Q9GZT9).
T1 construct: The PHD2 construct contained amino acids 1 to 426 of PHD2; His tag (N, cleaved yes); TEV protease cleavage site (N, cleaved yes); host or cells: Sf9 insect cells (baculovirus)
The experiment can be described thus: TR-FRET assay for PHD enzymes, PHD2. The settings on record: read-out: PHD2 IC5 0. As for the experimental part: (§1) The resulting proximity of the donor fluorophore complex, monoclonal antibody anti-6His-Terbium (Tb)-cryptate Gold, bound to the His-tagged VHL protein, EloB, EloC complex (His-VBC) and the acceptor fluorophore, SA-D2 complex, bound to HIF-1α-hydroxyproline results in a fluorescence resonance energy transfer signal that can be detected and quantified
(§2) For this, 5 μL PHD inhibitor compound was serially diluted with dilution buffer (50 mM HEPES [4-(2-hydroxyethyl)-1-piperazineethanesulfonic acid] pH 7.5, 50 mM sodium chloride [NaCl], 0.01% Tween-20, 0.01% purified bovine serum albumin [BSA]) and mixed with 5 μL PHD enzyme mix prepared as a 4× concentrate in the dilution buffer containing PHD enzyme (60 nM PHD1, 20 nM PHD2, 140 nM PHD3), 40 μM ferrous ammonium sulfate (FAS), 4 mM sodium (Na) ascorbate.
(§3) The IC50 values (mean, standard deviation, standard error of the mean, geometric mean and 95% confidence interval) were determined using a four-parameter curve-fit using GraphPad Prism 7.0 (GraphPad, La Jolla, Calif., USA) and represent the compound concentration plotted against the calculated ratio of 665 nm and 615 nm.
Background: TR-FRET usually uses a lanthanide donor and a delayed reading to cut background.

Experiment [2] has as its target T2, full-length human PHD3 (Homo sapiens, UniProt Q9H6Z9).
T2 construct: 6-His (N); purchased Active Motif (Carlsbad, Calif., USA) 81033; host or cells: E. coli
The experiment can be described thus: TR-FRET assay for PHD enzymes, PHD3.
From the text: as §1
Recombinant human PHD3 protein (molecular weight 31.1 kDa) was purchased from Active Motif (Carlsbad, Calif., USA). It was expressed in E. coli as the full-length protein (NCBI accession number NP_071356.1) with an N-terminal 6-His tag (catalog #81033, Lot #24417001).
as §2, §3

In experiment [3] the target is T3, full-length human PHD1 (Homo sapiens, UniProt Q96KS0).
T3 construct: FLAG (N); purchased Active Motif (Carlsbad, Calif., USA) 81064; host or cells: baculovirus expression system
The experiment can be described thus: TR-FRET assay for PHD enzymes, PHD1.
From the text: as §1
Recombinant human PHD1 protein (catalog #81064, Lot #24717001) was purchased from Active Motif (Carlsbad, Calif., USA). PHD1 was expressed in a baculovirus expression system as the full-length protein (NCBI accession number NP_542770.2) with an N-terminal FLAG tag (molecular weight 44.9 kDa). Purity (>90%) was assessed by SDS-PAGE.
as §2, §3

The structures appear in SMILES notation.

T1 sequence (Q9GZT9 whole entry, the tested form may be a part): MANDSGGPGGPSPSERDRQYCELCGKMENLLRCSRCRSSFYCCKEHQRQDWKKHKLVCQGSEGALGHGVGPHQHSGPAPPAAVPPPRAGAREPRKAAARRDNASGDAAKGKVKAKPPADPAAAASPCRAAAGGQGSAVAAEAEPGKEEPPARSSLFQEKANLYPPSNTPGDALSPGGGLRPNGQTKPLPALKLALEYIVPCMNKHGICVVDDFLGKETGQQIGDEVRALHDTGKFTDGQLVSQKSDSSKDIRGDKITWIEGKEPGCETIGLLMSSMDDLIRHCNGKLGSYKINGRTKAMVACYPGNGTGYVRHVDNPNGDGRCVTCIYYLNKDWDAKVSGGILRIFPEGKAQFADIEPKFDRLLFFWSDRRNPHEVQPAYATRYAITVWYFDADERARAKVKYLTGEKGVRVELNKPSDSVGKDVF
T2 sequence (Q9H6Z9 whole entry): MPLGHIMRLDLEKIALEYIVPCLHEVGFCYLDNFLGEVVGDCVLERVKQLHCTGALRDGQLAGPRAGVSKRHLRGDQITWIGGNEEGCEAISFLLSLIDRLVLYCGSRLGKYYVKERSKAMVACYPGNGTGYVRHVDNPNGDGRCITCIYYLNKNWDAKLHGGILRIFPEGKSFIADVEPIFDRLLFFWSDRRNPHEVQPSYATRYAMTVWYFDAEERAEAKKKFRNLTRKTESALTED
T3 sequence (Q96KS0 whole entry): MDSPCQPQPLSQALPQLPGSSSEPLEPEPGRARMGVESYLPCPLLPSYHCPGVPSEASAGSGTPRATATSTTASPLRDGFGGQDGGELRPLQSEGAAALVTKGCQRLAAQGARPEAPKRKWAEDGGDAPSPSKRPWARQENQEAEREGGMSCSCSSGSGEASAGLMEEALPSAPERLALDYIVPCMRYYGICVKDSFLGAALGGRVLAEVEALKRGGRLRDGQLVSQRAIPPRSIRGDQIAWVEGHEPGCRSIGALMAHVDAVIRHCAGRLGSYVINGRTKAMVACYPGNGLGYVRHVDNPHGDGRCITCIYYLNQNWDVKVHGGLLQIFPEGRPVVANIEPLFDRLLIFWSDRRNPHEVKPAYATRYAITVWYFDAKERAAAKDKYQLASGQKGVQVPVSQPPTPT

As for `O=C(O)c1ccc(-n2ncc(-c3ccc(Cl)cc3O)c2O)nc1` [Compound 39, 6-(4-(4-chloro-2-hydroxyphenyl)-5-hydroxy-1H-pyrazol-1-yl)nicotinic acid], the IC50 in experiment [1] is under 100 nM; in experiment [2], 1 to 10 µM; in experiment [3], 100 to 1000 nM.

The values are drawn from US20230227426A1 (Akebia Therapeutics, Inc., priority 2020, published 2023).
